The source of these data is patent publication US11464770B2, “Anticancer pharmaceutical composition” (NATIONAL CANCER CENTER, priority 2016, dated 2022).

Assay [1] deals with blood cancer cell lines (e.g. HL-60, Jurkat, Raji, Ramos, Daudi, MOLT-4). Kind of assay: Cell based assay, cell viability (CellTiter-Glo), blood cancer cell lines. The following applies: Homo sapiens. As to the method: Commercially available bladder cancer, prostate cancer, lung cancer, breast cancer, blood cancer, pancreatic cancer, colorectal cancer, brain cancer, neuroblastoma, melanoma, liver cancer, cervical carcinoma, ovarian cancer, renal cancer, and papilloma cell lines were each treated with trypsin-EDTA and cultured, followed by being seeded in each well of a 96 well plate. After 24 hours of treatment at constant temperature, the respective cells were treated with the candidate compound so that a final concentration became 0 to 2 μM. The treated cells were additionally cultured for 72 hours, and cell viability was measured by using an ATP detection method (CellTiter-Glo® Luminescent Cell Viability Assay, Promega).
(Cellular ATP, detected with luciferase, serves as a proxy for viable cell number.)

In assay [2] the test system is cervical carcinoma cell lines. Kind of assay: Cell based assay, cell viability (CellTiter-Glo), cervical carcinoma cell lines. As to conditions: Homo sapiens; HeLa cells. On the procedure:
Commercially available bladder cancer, prostate cancer, lung cancer, breast cancer, blood cancer, pancreatic cancer, colorectal cancer, brain cancer, neuroblastoma, melanoma, liver cancer, cervical carcinoma, ovarian cancer, renal cancer, and papilloma cell lines were each treated with trypsin-EDTA and cultured, followed by being seeded in each well of a 96 well plate. […] The treated cells were additionally cultured for 72 hours, and cell viability was measured by using an ATP detection method (CellTiter-Glo® Luminescent Cell Viability Assay, Promega).

Setting [3] is: MV4-11, blood cancer cell line MV-4-11, 72 hours, read-out: IC50, MV-4-11.
Where [4] appears, read: blood cancer cell line Daudi, 72 hours, read-out: IC50, Daudi.
Setting [5] is: blood cancer cell line HL-60, 72 hours, read-out: IC50, HL-60.
[6] abbreviates: blood cancer cell line Jurkat, 72 hours, read-out: IC50, Jurkat.
The mark [7] stands for this setting: blood cancer cell line MOLT-4, 72 hours, read-out: IC50, MOLT-4.
Where [8] appears, read: blood cancer cell line Raji, 72 hours, read-out: IC50, Raji.
[9] abbreviates: blood cancer cell line Ramos (RA 1), 72 hours, read-out: IC50, Ramos (RA 1).
The mark [10] stands for this setting: blood cancer cell line U-937, 72 hours, read-out: IC50, U-937.

Structures are written as SMILES. pIC50: −log10 of the molar value. Like-named read-outs stand apart in the source and are kept apart here.

For orientation: pIC50 means the IC50 on a negative log10 scale, so that one unit is a factor of ten. As to `CCS(=O)(=O)n1c([S+](C)[O-])c(C(C)=O)c(=O)c2c(Cl)ccc(Br)c21` (stereo not drawn) [Compound 39, 3-acetyl-8-bromo-5-chloro-1-(ethylsulfonyl)-2-(methylsulfinyl)quinolin-4(1H)-one], the pIC50 in assay [1] (setting [3]), in assay [1] (setting [4]), in assay [1] (setting [5]), in assay [1] (setting [6]), in assay [1] (setting [7]) and in assay [1] (setting [8]) was less than 5.70 each time. Further, the pIC50 in assay [1] (setting [9]) was less than 5.70; in assay [1] (setting [10]) it was less than 5.70; in assay [2], less than 5.00.
In the case of `CSc1c(C(C)=O)c(=O)c2c(Cl)ccc(Br)c2n1S(=O)(=O)c1ccc(C(C)(C)C)cc1` [Compound 40, 3-acetyl-8-bromo-1-((4-(tert-butyl)phenyl)sulfonyl)-5-chloro-2-(methylthio)quinolin-4(1H)-one], the negative logarithm of the IC50 (pIC50) in assay [1] (setting [3]), in assay [1] (setting [4]), in assay [1] (setting [5]), in assay [1] (setting [6]), in assay [1] (setting [7]) and in assay [1] (setting [8]) was less than 5.70 throughout. For the same compound, the pIC50 in assay [1] (setting [9]) was less than 5.70; in assay [1] (setting [10]) it was less than 5.70; in assay [2], less than 5.00.
On to `CC(=O)c1c(S(C)(=O)=O)n(S(=O)(=O)c2ccc(C(C)(C)C)cc2)c2c(Br)ccc(Cl)c2c1=O` [Compound 41, 3-acetyl-8-bromo-1-((4-(tert-butyl)phenyl)sulfonyl)-5-chloro-2-(methylsulfonyl)quinolin-4(1H)-one], for which the pIC50 in assay [1] (setting [3]), in assay [1] (setting [4]), in assay [1] (setting [5]), in assay [1] (setting [6]), in assay [1] (setting [7]) and in assay [1] (setting [8]) was less than 5.70 throughout. Further, the negative-log IC50 (pIC50) in assay [1] (setting [9]) was less than 5.70; in assay [1] (setting [10]), less than 5.70; in assay [2], less than 5.00.
With `CC(=O)c1c([S+](C)[O-])n(S(=O)(=O)c2ccc(C(C)(C)C)cc2)c2c(Br)ccc(Cl)c2c1=O` (stereo not drawn) [Compound 42, 3-acetyl-8-bromo-1-((4-(tert-butyl)phenyl)sulfonyl)-5-chloro-2-(methylsulfinyl)quinolin-4(1H)-one], the pIC50 in assay [1] (setting [3]), in assay [1] (setting [4]), in assay [1] (setting [5]), in assay [1] (setting [6]), in assay [1] (setting [7]) and in assay [1] (setting [8]) was less than 5.70 each time. For the same compound, the figures for the negative logarithm of the IC50 (pIC50) in assay [1] (setting [9]), in assay [1] (setting [10]) and in assay [2] were less than 5.70, less than 5.70 and less than 5.00, respectively.
As for `CC(=O)c1c(SCc2cc(Cl)ccc2Cl)[nH]c2c(Br)ccc(Cl)c2c1=O` [Compound 43, 3-acetyl-8-bromo-5-chloro-2-((2,5-dichlorobenzyl)thio)quinolin-4(1H)-one], the pIC50 in assay [1] (setting [3]), in assay [1] (setting [4]), in assay [1] (setting [5]), in assay [1] (setting [6]), in assay [1] (setting [7]) and in assay [1] (setting [8]) was less than 5.70 throughout. In addition, the pIC50 in assay [1] (setting [9]) was less than 5.70; in assay [1] (setting [10]), less than 5.70; in assay [2] it was less than 5.00.
Consider `CC(=O)c1c(SCc2cc(F)cc(F)c2)[nH]c2c(Br)ccc(Cl)c2c1=O` [Compound 45, 3-acetyl-8-bromo-5-chloro-2-((3,5-difluorobenzyl)thio)quinolin-4(1H)-one], for which the negative-log IC50 (pIC50) in assay [1] (setting [3]), in assay [1] (setting [4]), in assay [1] (setting [5]), in assay [1] (setting [6]), in assay [1] (setting [7]) and in assay [1] (setting [8]) was less than 5.70 each time. For the same compound, the negative logarithm of the IC50 (pIC50) in assay [1] (setting [9]) was less than 5.70; in assay [1] (setting [10]) it was less than 5.70; in assay [2], less than 5.00.
In the case of `CC(=O)c1c(SCc2cccc(I)c2)[nH]c2c(Br)ccc(Cl)c2c1=O` [Compound 47, 3-acetyl-8-bromo-5-chloro-2-((3-iodobenzyl)thio)quinolin-4(1H)-one], the pIC50 in assay [1] (setting [3]), in assay [1] (setting [4]), in assay [1] (setting [5]), in assay [1] (setting [6]), in assay [1] (setting [7]) and in assay [1] (setting [8]) was less than 5.70 each time. Moreover, the figures for the pIC50 in assay [1] (setting [9]), in assay [1] (setting [10]) and in assay [2] were less than 5.70, less than 5.70 and less than 5.00, respectively.
In the case of `CC(=O)c1c([S+]([O-])Cc2cccc(I)c2)[nH]c2c(Br)ccc(Cl)c2c1=O` (stereo not drawn) [Compound 48, 3-acetyl-8-bromo-5-chloro-2-((3-iodobenzyl)sulfinyl)quinolin-4(1H)-one], the pIC50 in assay [1] (setting [3]), in assay [1] (setting [4]), in assay [1] (setting [5]), in assay [1] (setting [6]), in assay [1] (setting [7]) and in assay [1] (setting [8]) was less than 5.70 each time. The values for the pIC50 in assay [1] (setting [9]), in assay [1] (setting [10]) and in assay [2] were less than 5.70, less than 5.70 and less than 5.00, respectively.
